Data published in patent US20230310537A1, “TREATMENT OF VASCULAR EHLERS-DANLOS SYNDROME AND RELATED SYNDROMES” (The Johns Hopkins University, priority 2020, published 2023).
“Also recorded” adds a separate entry of the source.

Key:
[1] = test system: BL6 Col3a1^G938D/+ mice; experiment: Kaplan-Meier survival / vascular rupture of drug-treated BL6 vEDS mice; assay type: in vivo; settings: for elevated risk of rupture caused by the p38 inhibitor, under concomitant treatment (Kaplan-Meier survival): BL6 Col3a1^G938D/+ mice receiving SB203580 IP plus test drug (cobimetinib via drinking water, ruboxistaurin via chow) from weaning for 30 days, vs SB203580 alone
From the text: Mice were maintained either on a C57BL/6J background (#000664, The Jackson Laboratory) or on a 129S6/SvEvTac background (#129SVE, Taconic Biosciences). Mice were considered to be 129S6/SvEvTac after backcrossing for a minimum of 4 generations. F1 and mixed mice were generated by interbreeding pure C57BL/6J and 129S6/SvEvTac mice. To identify the dominant genetic locus, mixed background wild-type females were bred to Col3a1^G938D/+ male mice on a pure BL6 background. Mice haploinsufficient or knockout for Map2k6 were originally obtained from the Jackson Laboratory (#008382) and backcrossed in the lab for a minimum of 10 generations. Restriction enzymes were used to detect the presence or absence of the Col3a1 mutation. The G209S mutation leads to the loss of an AvaII cut site and the G938D mutation leads to the gain of a BamHI cut site (AvaII R0153L; BamHI-HF R3136S, New England Biolabs). All mice found dead were assessed for cause of death by necropsy, noting in particular hemothorax and hemoperitoneum.
(§1) For drug trials in the Col3a1/^G938D/+ mice, mice were initiated on medication at weaning and continued until the end of the trial. Cobimetinib (GDC-0973/R0551404, Active Biochem) was dissolved in drinking water and filtered to reach a final concentration of 0.02 g/L giving an estimated dose of 2 mg/kg/day. Ruboxistaurin (LY333531 HCl, Selleck Chemicals) was mixed with powdered food (LabDiet) to give a concentration of 0.1 mg/g giving an estimated dose of 8 mg/kg/day. SB203580 (Selleck Chemicals) was administered at a dose of 5 mg/kg/d every 3 days by intraperitoneal injection. Animals receiving placebo (5% Tween in PBS) were also injected every 3 days by intraperitoneal injection.
Kaplan-Meier survival curves were compared using a log-rank (Mantel-Cox) test. Mice were censored only if unrelated to the outcome, such as for planned biochemical or histologic analysis or if the authors were directed to euthanize them by animal care staff, for malocclusion, fight wounds, or genital prolapse.

[2] = test system: pPKCβ; experiment: Western blot of pPKCβ in proximal descending aortas of treated vEDS mice; assay type: in vivo; settings: aortas of Col3a1^G938D/+ mice, SB203580 treated vs placebo treated; p<0.01
Experimental: (§2) Protein was extracted using an automatic bead homogenizer in conjunction with a Protein Extraction Kit (Full Moon Biosystems). All protein lysis buffers contained both PhosSTOP and Complete™, Mini, EDTA-free Protease Inhibitor Cocktail (Roche). Western blotting was performed using LI-COR buffer and species appropriate secondary antibodies conjugated to IR-dye700 or IRdye-800 (LI-COR Biosciences), according to the manufacturer's guidelines and analyzed using LI-COR Odyssey. The following primary antibodies were used: anti-β-Actin (8H10D10) (Cell Signaling Technology, 3700), anti-phospho ERK1/2 (Cell Signaling Technology, 4370), anti-PKCβ (phospho 5660) (Abcam, 75837), anti-phospho p38 (Cell Signaling Technology, 4511).
as §1, with “Animals receiving placebo (5% Tween in PBS) were also injected every 3 days by intraperitoneal injection.” left out

[3] = test system: pERK1/2; experiment: Western blot of pERK1/2 in proximal descending aortas of treated vEDS mice; assay type: in vivo; settings: aortas of Col3a1^G938D/+ mice, SB203580 treated vs placebo treated; p<0.01
Experimental: as §2
as §1, with “Animals receiving placebo (5% Tween in PBS) were also injected every 3 days by intraperitoneal injection.” left out

[4] = test system: severe (Col3a1 G938D/+) and mild (Col3a1^G209S/+) mouse models of vEDS; settings: either vEDS mouse model; interventions that inhibit PKC/ERK activation; cited from earlier work
[5] = test system: MFS mice; settings: therapies that attenuate TGF-β signaling and related pathways; cited from earlier work

C[S+]([O-])c1ccc(-c2nc(-c3ccncc3)c(-c3ccc(F)cc3)[nH]2)cc1 (centres unmarked) [SB203580]
rate of death / vascular rupture risk (Kaplan-Meier survival vs placebo) ([1]; BL6 Col3a1^G938D/+ mice, IP injection every 3 days starting at weaning, continuing for 40 days, Log-Rank p<0.01): significantly increased the rate of death; also recorded: increases vascular rupture risk
PKC activation (pPKCβ levels normalized to β-actin) [2]: increase
ERK activation (pERK1/2 levels normalized to β-actin) [3]: increase

O=C(c1ccc(F)c(F)c1Nc1ccc(I)cc1F)N1CC(O)([C@@H]2CCCCN2)C1 [cobimetinib]
elevated risk of rupture caused by the p38 inhibitor, under concomitant treatment (Kaplan-Meier survival) [1]: rescued
aortic disease rupture risk [4]: rescue aortic disease rupture risk

CCCCc1nc(Cl)c(CO)n1Cc1ccc(-c2ccccc2-c2nn[nH]n2)cc1 [losartan]
aortic disease [5]: suppress aortic disease

CN(C)C[C@@H]1CCn2cc(c3ccccc32)C2=C(C(=O)NC2=O)c2cn(c3ccccc23)CCO1 [ruboxistaurin]
elevated risk of rupture caused by the p38 inhibitor, under concomitant treatment (Kaplan-Meier survival) [1]: rescued
aortic disease rupture risk [4]: rescue aortic disease rupture risk
